From patent publication US9745310B2 (SK BIOPHARMACEUTICALS CO., LTD., priority 2015, dated 2017)

Molecular target: human mGluR5 receptor (Homo sapiens (Human), UniProt P41594)
Test: Calcium influx assay based on fluorescence (mGluR5 PAM activity)
Details: human mGluR5 receptor-overexpressed HEK293 cell line; L-glutamate EC20; Fluo-4, FLIPR
Method: Efficacy as a positive allosteric modulator (PAM) of mGluR5 of the compounds of the Examples was tested as follows:
Calcium Influx Assay Based on Fluorescence
Ca^2+ (calcium) influx assay is an experiment for measuring the activity of a positive allosteric modulator of mGluR5 receptor in which human mGluR5 receptor-overexpressed HEK293 cell line is used. The day before the experiment, cells were prepared in a cell culture medium (DMEM, 5% FBS) with the density of 80,000/well, and 100 μl of cells were dispensed into each well of a poly-D-lysine-coated 96-well plate. Cells were incubated in a 5% CO2, 37° C. incubator. The next day, the cell culture medium was removed from the plate, and 100 μl of 1× Fluo-4 calcium indicator diluted with a buffer (1× Hank's balanced salt solution, 20 mM HEPES, 2.5 mM probenecid) were added to each well and incubated at 37° C. for 1 hour. The compound stock solutions were prepared in 100% DMSO, and the compounds were serially diluted with a ¼ dilution to 6 or 7 concentrations (final concentration was 10 μM to 10 nM). The diluted compound solutions were added to the plate with 0.1 to 0.2% of final DMSO concentration. 1 hour after the addition of Fluo-4 calcium indicator, L-glutamate (EC20 concentration) and the test compound solutions were added to the plate, and Ca^2+ reaction was then measured by FLIPR at room temperature. The activity of the compounds was standardized on the basis of the results of maximum value-minimum value of fluorescent reaction, and the activity value was calculated on the basis that no activity on glutamate EC20 is 0% and the reaction to glutamate maximum value is 100%.

Sequence of human mGluR5 receptor (P41594 21-1212): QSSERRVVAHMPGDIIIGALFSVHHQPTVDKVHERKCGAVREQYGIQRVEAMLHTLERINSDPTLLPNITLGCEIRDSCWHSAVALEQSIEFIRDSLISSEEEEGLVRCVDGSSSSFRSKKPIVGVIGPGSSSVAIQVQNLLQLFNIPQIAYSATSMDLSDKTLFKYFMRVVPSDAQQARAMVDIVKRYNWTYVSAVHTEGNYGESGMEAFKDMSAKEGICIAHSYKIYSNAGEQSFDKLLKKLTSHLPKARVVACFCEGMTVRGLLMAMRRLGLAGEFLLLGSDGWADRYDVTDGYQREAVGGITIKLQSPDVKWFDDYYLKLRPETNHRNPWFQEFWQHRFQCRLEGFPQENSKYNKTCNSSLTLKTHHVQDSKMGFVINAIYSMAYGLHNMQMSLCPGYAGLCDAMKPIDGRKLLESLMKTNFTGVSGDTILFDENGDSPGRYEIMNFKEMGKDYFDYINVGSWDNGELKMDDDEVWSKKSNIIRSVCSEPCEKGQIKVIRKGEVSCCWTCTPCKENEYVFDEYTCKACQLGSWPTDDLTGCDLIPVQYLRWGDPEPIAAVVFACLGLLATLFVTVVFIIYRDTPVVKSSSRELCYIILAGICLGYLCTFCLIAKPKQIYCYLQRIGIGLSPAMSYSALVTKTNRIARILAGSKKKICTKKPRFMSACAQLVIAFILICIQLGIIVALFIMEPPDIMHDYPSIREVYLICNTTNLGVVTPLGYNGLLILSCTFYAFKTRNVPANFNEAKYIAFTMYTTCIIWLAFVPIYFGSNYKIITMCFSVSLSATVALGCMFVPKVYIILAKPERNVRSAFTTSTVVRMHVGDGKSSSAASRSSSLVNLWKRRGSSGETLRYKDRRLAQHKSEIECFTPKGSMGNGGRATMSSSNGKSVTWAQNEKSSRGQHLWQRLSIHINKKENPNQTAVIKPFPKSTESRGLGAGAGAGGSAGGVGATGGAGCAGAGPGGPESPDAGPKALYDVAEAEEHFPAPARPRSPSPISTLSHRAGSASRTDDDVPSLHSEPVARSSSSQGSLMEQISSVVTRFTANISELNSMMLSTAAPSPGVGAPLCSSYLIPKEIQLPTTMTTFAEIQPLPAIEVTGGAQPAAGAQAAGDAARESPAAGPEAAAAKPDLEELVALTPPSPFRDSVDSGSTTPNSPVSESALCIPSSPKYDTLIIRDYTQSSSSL

| EC50 | Structure (SMILES) |
| --- | --- |
| 500 to 1000 nM | Nc1cc(F)ccc1-c1cnc2nc(COc3cncc(F)c3)cn2c1 [Example 175, 5-fluoro-2-[2-[(5-fluoro-3-pyridyl)oxymethyl]imidazo[1,2-a]pyrimidin-6-yl]aniline] |
| 100 to 500 nM | Fc1cccc(OCc2cn3cc(-c4ccc(F)nc4)cnc3n2)c1 [Example 81, 2-[(3-fluorophenoxy)methyl]-6-(6-fluoro-3-pyridyl)imidazo[1,2-a]pyrimidine] |
| 500 to 1000 nM | Cc1ccc(-c2cnc3nc(COc4ccc(F)cc4)cn3c2)c(F)c1 [Example 64, 6-(2-fluoro-4-methyl-phenyl)-2-[(4-fluorophenoxy)methyl]imidazo[1,2-a]pyrimidine] |
| 500 to 1000 nM | Fc1ccc(OCc2cn3cc(-c4cnccc4Cl)cnc3n2)cc1 [Example 87, 6-(4-chloro-3-pyridyl)-2-[(4-fluorophenoxy)methyl]imidazo[1,2-a]pyrimidine] |
| 100 to 500 nM | Fc1ccc(OCc2cn3cc(-c4ccc(F)cc4)cnc3n2)cc1 [Example 53, 2-[(4-fluorophenoxy)methyl]-6-(4-fluorophenyl)imidazo[1,2-a]pyrimidine] |
| 100 to 500 nM | Fc1ccc(-c2cnc3nc(COc4cncc(F)c4)cn3c2)cc1 [Example 171, 6-(4-fluorophenyl)-2-[(5-fluoro-3-pyridyl)oxymethyl)imidazo[1,2-a]pyrimidine] |
| 100 to 500 nM | NC(=O)OCc1cc(F)ccc1-c1cnc2nc(COc3ccccn3)cn2c1 [Example 195, [5-fluoro-2-[2-(2-pyridyloxymethyl)imidazo[1,2-a]pyrimidin-6-yl]phenyl]methyl carbamate] |
| 100 to 500 nM | COc1cc(F)ccc1-c1cnc2nc(COc3ccccn3)cn2c1 [Example 104, 6-(4-fluoro-2-methoxyphenyl)-2-(pyridin-2-yloxymethyl)imidazo[1,2-a]pyrimidine] |
| 500 to 1000 nM | Nc1cc(F)c(F)cc1-c1cnc2nc(COc3ccc(F)cc3)cn2c1 [Example 73, 4,5-difluoro-2-[2-[(4-fluorophenoxy)methyl]imidazo[1,2-a]pyrimidin-6-yl]aniline] |
| 100 to 500 nM | Cc1cc(F)ccc1-c1cnc2nc(COc3cccnc3)cn2c1 [Example 149, 6-(4-fluoro-2-methylphenyl)-2-(pyridin-3-yloxymethyl)imidazo[1,2-a]pyrimidine] |
| 100 to 500 nM | COc1cc(Cl)ccc1-c1cnc2nc(COc3ccc(F)cc3)cn2c1 [Example 69, 6-(4-chloro-2-methoxy-phenyl)-2-[(4-fluorophenoxy)methyl]imidazo[1,2-a]pyrimidine] |
| 100 to 500 nM | COc1cc(C#N)ccc1-c1cnc2nc(COc3ccc(F)cc3)cn2c1 [Example 68, 4-[2-[(4-fluorophenoxy)methyl]imidazo[1,2-a]pyrimidin-6-yl]-3-methoxy-benzonitrile] |
| 100 to 500 nM | FCc1cc(F)ccc1-c1cnc2nc(COc3ccc(F)cc3)cn2c1 [Example 199, 6-[4-fluoro-2-(fluoromethyl)phenyl]-2-[(4-fluorophenoxy)methyl]imidazo[1,2-a]pyrimidine] |
| 500 to 1000 nM | COc1cc(Cl)ccc1-c1cnc2nc(COc3ccccc3)cn2c1 [Example 22, 6-(4-chloro-2-methoxyphenyl)-2-phenoxymethylimidazo[1,2-a]pyrimidine] |
| 100 to 500 nM | Oc1ccccc1-c1cnc2nc(COc3ccnc(F)c3)cn2c1 [Example 169, 6-(2-hydroxyphenyl)-2-(2-fluoropyridin-4-yloxymethyl)imidazo[1,2-a]pyrimidine] |
| 100 to 500 nM | Nc1cc(-c2cnc3nc(COc4ccccn4)cn3c2)ccc1F [Example 134, 2-fluoro-5-[2-(2-pyridyloxymethyl)imidazo[1,2-a]pyrimidin-6-yl]aniline] |

| EC50 | Structure (SMILES) |
| --- | --- |
| 100 to 500 nM | Clc1cnccc1-c1cnc2nc(COc3ccccc3)cn2c1 [Example 36, 6-(3-chloropyridin-4-yl)-2-phenoxymethylimidazo[1,2-a]pyrimidine] |
| 100 to 500 nM | CC(=O)OCc1cc(F)ccc1-c1cnc2nc(COc3ccccn3)cn2c1 [Example 196, [5-fluoro-2-[2-(2-pyridyloxymethyl)imidazo[1,2-a]pyrimidin-6-yl]phenyl]methyl acetate] |
| 100 to 500 nM | Cc1ccccc1-c1cnc2nc(COc3ccc(F)cc3)cn2c1 [Example 60, 2-[(4-fluorophenoxy)methyl]6-(o-tolyl)imidazo[1,2-a]pyrimidine] |
| 100 to 500 nM | Fc1ccc(-c2cnc3nc(COc4ccnc(Cl)c4)cn3c2)cc1 [Example 172, 2-[(2-chloro-4-pyridyl)oxymethyl]-6-(4-fluorophenyl)imidazo[1,2-a]pyrimidine] |
| 500 to 1000 nM | Cc1cccc(C)c1-c1cnc2nc(COc3ccc(F)cc3)cn2c1 [Example 50, 6-(2,6-dimethylphenyl)-2-(4-fluorophenoxymethyl)imidazo[1,2-a]pyrimidine] |
| 100 to 500 nM | Fc1cccc(OCc2cn3cc(-c4ccc(F)cc4C(F)(F)F)cnc3n2)c1 [Example 94, 2-[(3-fluorophenoxy)methyl]-6-[4-fluoro-2-(trifluoromethyl)phenyl]imidazo[1,2-a]pyrimidine] |
| 100 to 500 nM | Fc1ccc(-c2cnc3nc(COc4cccc(F)c4)cn3c2)cc1 [Example 54, 2-[(3-fluorophenoxy)methyl]-6-(4-fluorophenyl)imidazo[1,2-a]pyrimidine] |
| 100 to 500 nM | Fc1ccc(OCc2cn3cc(-c4ccc(F)cc4CCl)cnc3n2)cc1 [Example 197, 6-[2-(chloromethyl)-4-fluoro-phenyl]-2-[(4-fluorophenoxy)methyl)imidazo[1,2-a]pyrimidine] |
| 100 to 500 nM | Cc1c(F)cccc1-c1cnc2nc(COc3ccc(F)cn3)cn2c1 [Example 124, 6-(3-fluoro-2-methyl-phenyl)-2-[(5-fluoro-2-pyridyl)oxymethyl)imidazo[1,2-a]pyrimidine] |
| 500 to 1000 nM | COc1cc(-c2cnc3nc(COc4ccccc4)cn3c2)ccc1F [Example 21, 6-(4-fluoro-3-methoxyphenyl)-2-phenoxymethylimidazo[1,2-a]pyrimidine] |
| 100 to 500 nM | Fc1ccc(-c2cnc3nc(COc4cccc(F)c4)cn3c2)nc1 [Example 93, 2-[(3-fluorophenoxy)methyl]-6-(5-fluoro-2-pyridyl)imidazo[1,2-a]pyrimidine] |
| 500 to 1000 nM | OCc1cc(F)ccc1-c1cnc2nc(COc3ccc(F)cn3)cn2c1 [Example 139, [5-fluoro-2-[2-[(5-fluoro-2-pyridyl)oxymethyl]imidazo[1,2-a]pyrimidin-6-yl]phenyl]methanol] |
| 100 to 500 nM | Fc1ccc(OCc2cn3cc(-c4cncc(Cl)c4)cnc3n2)cc1 [Example 88, 6-(5-chloro-3-pyridyl)-2-[(4-fluorophenoxy)methyl]imidazo[1,2-a]pyrimidine] |
| 100 to 500 nM | Fc1ccc(OCc2cn3cc(-c4ccc(F)cn4)cnc3n2)cc1 [Example 85, 2-[(4-fluorophenoxy)methyl]-6-(5-fluoro-2-pyridyl)imidazo[1,2-a]pyrimidine] |
| 500 to 1000 nM | Fc1cncc(OCc2cn3cc(-c4ccc(F)cc4C(F)(F)F)cnc3n2)c1 [Example 173, 2-[(5-fluoro-3-pyridyl)oxymethyl]-6-[4-fluoro-2-(trifluoromethyl)phenyl]imidazo[1,2-a]pyrimidine] |
| 100 to 500 nM | COc1cc(F)ccc1-c1cnc2nc(COc3ccnc(F)c3)cn2c1 [Example 163, 6-(4-fluoro-2-methoxyphenyl)-2-(2-fluoropyridin-4-yloxymethyl)imidazo[1,2-a]pyrimidine] |
